Laboratory results taken from patent publication US12655116B2, “Substituted isophthalic acid diamides” (Bayer Aktiengesellschaft, priority 2020, dated 2026).

Experiments:
ABUTH [1] = assay: Pre-emergence herbicidal action against ABUTH; format: in vivo, Abutilon theophrasti; details: Abutilon theophrasti, 504 h; for pest or weed control at 80 g/ha: scored visually after 3 weeks vs untreated controls (100% = plants have died, 0% = like control plants)
Outline: (§1)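 Visual rating at 3 weeks vs untreated pots; 0–100% scale, 100% = plants died. Treatment: aqueous WP/EC spray onto covering soil, 600–800 l/ha, 0.2% wetter, seeds in sandy loam.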

ALOMY [2] = assay: Pre-emergence herbicidal action against ALOMY; format: in vivo, Alopecurus myosuroides; details: Alopecurus myosuroides, 504 h, pre-emergence; for pest or weed control at 80 g/ha: scored visually after 3 weeks vs untreated controls (100% = plants have died, 0% = like control plants); for pest or weed control at 20 g/ha: scored visually after 3 weeks, 100% = plants have died, 0% = like control plants
Outline: as §1

AMARE [3] = assay: Pre-emergence herbicidal action against AMARE; format: in vivo, Amaranthus retroflexus; details: Amaranthus retroflexus, 504 h, scored visually after 3 weeks vs untreated controls, 100% = plants have died, 0% = like control plants
Outline: as §1

AVEFA = assay: Pre-emergence herbicidal action against AVEFA; format: in vivo, Avena fatua; details: Avena fatua, 504 h, pre-emergence
Outline: as §1

ECHCG [4] = assay: Pre-emergence herbicidal action against ECHCG; format: in vivo, Echinochloa crus-galli; details: Echinochloa crus-galli, 504 h
Outline: as §1

LOLRI = assay: Pre-emergence herbicidal action against LOLRI; format: in vivo, Lolium rigidum; details: Lolium rigidum, 504 h, 80 g/ha
Outline: as §1

MATIN [5] = assay: Pre-emergence herbicidal action against MATIN; format: in vivo, Matricaria inodora; details: Tripleurospermum inodorum, 504 h; for pest or weed control at 80 g/ha: dosage 80 g/ha
Outline: as §1

PHBPU [6] = assay: Pre-emergence herbicidal action against PHBPU; format: in vivo, Pharbitis purpurea; details: Ipomoea purpurea, 504 h, dosage 80 g/ha
Outline: as §1

SETVI [7] = assay: Pre-emergence herbicidal action against SETVI; format: in vivo, Setaria viridis; details: Setaria viridis, 504 h; for pest or weed control at 80 g/ha: dosage 80 g/ha
Outline: as §1

VERPE [8] = assay: Pre-emergence herbicidal action against VERPE; format: in vivo, Veronica persica; details: Veronica persica, 504 h, dosage 80 g/ha
Outline: as §1

VIOTR [9] = assay: Pre-emergence herbicidal action against VIOTR; format: in vivo, Viola tricolor; details: Viola tricolor, 504 h; for pest or weed control at 80 g/ha: dosage 80 g/ha
Outline: as §1

DIGSA [10] = assay: Pre-emergence herbicidal action against DIGSA; format: in vivo, Digitaria sanguinalis; details: Digitaria sanguinalis, 504 h; for pest or weed control at 20 g/ha: dosage 20 g/ha; for pest or weed control at 80 g/ha: dosage 80 g/ha
Outline: as §1

ABUTH [11] = assay: Post-emergence herbicidal action against ABUTH; format: in vivo, Abutilon theophrasti; details: Abutilon theophrasti, 504 h, visual assessment about 3 weeks after treatment vs untreated controls; for pest or weed control at 5 g/ha: dosage 5 g/ha; for pest or weed control at 20 g/ha: dosage 20 g/ha
Outline: (§2)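 Weeds in sandy loam soil received a post-emergence spray at the one-leaf stage. Compounds were applied as WP or EC in water, 600 to 800 l/ha, with 0.2% wetting agent. Activity in % was judged visually after roughly 3 weeks against untreated plants.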

ALOMY [12] = assay: Post-emergence herbicidal action against ALOMY; format: in vivo, Alopecurus myosuroides; details: Alopecurus myosuroides, 504 h, dosage 20 g/ha, visual assessment about 3 weeks after treatment vs untreated controls
Outline: as §2

AMARE [13] = assay: Post-emergence herbicidal action against AMARE; format: in vivo, Amaranthus retroflexus; details: Amaranthus retroflexus, 504 h, 20 g/ha, visual assessment about 3 weeks after treatment, 100% = plants have died, 0% = like control plants
Outline: as §2

ECHCG [14] = assay: Post-emergence herbicidal action against ECHCG; format: in vivo, Echinochloa crus-galli; details: Echinochloa crus-galli, 504 h; for pest or weed control at 20 g/ha: dosage 20 g/ha
Outline: as §2

PHBPU [15] = assay: Post-emergence herbicidal action against PHBPU; format: in vivo, Pharbitis purpurea; details: Ipomoea purpurea, 504 h; for pest or weed control at 20 g/ha: dosage 20 g/ha
Outline: as §2

SETVI [16] = assay: Post-emergence herbicidal action against SETVI; format: in vivo, Setaria viridis; details: Setaria viridis, 504 h; for pest or weed control at 5 g/ha: dosage 5 g/ha; for pest or weed control at 20 g/ha: dosage 20 g/ha
Outline: as §2

VERPE [17] = assay: Post-emergence herbicidal action against VERPE; format: in vivo, Veronica persica; details: Veronica persica, 504 h, 20 g/ha
Outline: as §2

DIGSA [18] = assay: Post-emergence herbicidal action against DIGSA; format: in vivo, Digitaria sanguinalis; details: Digitaria sanguinalis, 504 h
Outline: as §2

MATIN [19] = assay: Post-emergence herbicidal action against MATIN; format: in vivo, Matricaria inodora; details: Tripleurospermum inodorum, 504 h, dosage 20 g/ha
Outline: as §2

VIOTR [20] = assay: Post-emergence herbicidal action against VIOTR; format: in vivo, Viola tricolor; details: Viola tricolor, 504 h
Outline: as §2

Compound | pest or weed control at 80 g/ha (ABUTH [1]) | pest or weed control at 80 g/ha (ALOMY [2]) | pest or weed control at 20 g/ha (ALOMY [2]) | pest or weed control at 20 g/ha (AMARE [3]) | pest or weed control at 80 g/ha (AMARE [3]) | pest or weed control at 80 g/ha (AVEFA) | pest or weed control at 80 g/ha (ECHCG [4]) | pest or weed control at 80 g/ha (LOLRI) | pest or weed control at 80 g/ha (MATIN [5]) | pest or weed control at 80 g/ha (PHBPU [6]) | pest or weed control at 80 g/ha (SETVI [7]) | pest or weed control at 80 g/ha (VERPE [8]) | pest or weed control at 80 g/ha (VIOTR [9]) | pest or weed control at 20 g/ha (DIGSA [10]) | pest or weed control at 80 g/ha (DIGSA [10]) | pest or weed control at 5 g/ha (ABUTH [11]) | pest or weed control at 20 g/ha (ABUTH [11]) | pest or weed control at 20 g/ha (ALOMY [12]) | pest or weed control at 20 g/ha (AMARE [13]) | pest or weed control at 20 g/ha (ECHCG [14]) | further results
Cc1nnc(NC(=O)c2ccc(C(F)(F)F)c(C(=O)NC(C)C)c2C)o1 [Example 6-255] | 100% | 100% | 90% | 100% | 100% | 80% | 100% | 80% | 100% | 90% | 100% | 90% | 90% | 100% | 100% | 90% | 90% | 90% | 100% | 100% | pest or weed control at 20 g/ha (ABUTH [1]; dosage 20 g/ha, scored visually after 3 weeks vs untreated controls, 100% = plants have died, 0% = like control plants, read-out: Pre-emergence action against ABUTH (herbicidal activity in percent)): 100%; pest or weed control at 20 g/ha (SETVI [7]; dosage 20 g/ha): 100%; pest or weed control at 20 g/ha (VIOTR [9]; dosage 20 g/ha): 80%; pest or weed control at 5 g/ha (ECHCG [14]; dosage 5 g/ha): 90%; pest or weed control at 5 g/ha (PHBPU [15]; dosage 5 g/ha): 90%; pest or weed control at 20 g/ha (PHBPU [15]): 90%; pest or weed control at 5 g/ha (SETVI [16]): 80%; pest or weed control at 20 g/ha (SETVI [16]): 90%; pest or weed control at 20 g/ha (VERPE [17]): 80%; pest or weed control at 5 g/ha (DIGSA [18]): 90%; pest or weed control at 20 g/ha (DIGSA [18]): 100%
CNC(=O)c1c(Br)ccc(C(=O)Nc2nnnn2C)c1Cl [Example 1-177] | 100% | 100% | 80% | 100% | 100% | 100% | 100% | 90% | 100% | 80% | 100% | 100% | 100% | 100% | 100% | 90% | 90% | 90% | 100% | 90% | pest or weed control at 20 g/ha (AVEFA; 20 g/ha, scored visually after 3 weeks, 100% = plants have died, 0% = like control plants): 80%; pest or weed control at 20 g/ha (ECHCG [4]; 20 g/ha): 80%; pest or weed control at 20 g/ha (MATIN [5]; dosage 20 g/ha): 90%; pest or weed control at 20 g/ha (MATIN [19]): 90%; pest or weed control at 20 g/ha (PHBPU [15]): 80%; pest or weed control at 5 g/ha (SETVI [16]): 90%; pest or weed control at 20 g/ha (SETVI [16]): 90%; pest or weed control at 20 g/ha (VERPE [17]): 80%; pest or weed control at 5 g/ha (VIOTR [20]; 5 g/ha): 90%; pest or weed control at 20 g/ha (VIOTR [20]; 20 g/ha): 90%; pest or weed control at 5 g/ha (DIGSA [18]): 90%; pest or weed control at 20 g/ha (DIGSA [18]): 90%
